Laboratory results from ChEMBL document CHEMBL5465560, “Selectivity Literature for EUbOPEN Chemogenomic Library” (2024).

Tests used:
[1] = biological target: T1, Dual specificity mitogen-activated protein kinase kinase 4 (Homo sapiens) (UniProt P45985); assay: Selectivity interaction (KinomeScan (DiscoverX)) EUB0001049a MAP2K4; conditions: at 1 µM
T1 sequence (whole entry): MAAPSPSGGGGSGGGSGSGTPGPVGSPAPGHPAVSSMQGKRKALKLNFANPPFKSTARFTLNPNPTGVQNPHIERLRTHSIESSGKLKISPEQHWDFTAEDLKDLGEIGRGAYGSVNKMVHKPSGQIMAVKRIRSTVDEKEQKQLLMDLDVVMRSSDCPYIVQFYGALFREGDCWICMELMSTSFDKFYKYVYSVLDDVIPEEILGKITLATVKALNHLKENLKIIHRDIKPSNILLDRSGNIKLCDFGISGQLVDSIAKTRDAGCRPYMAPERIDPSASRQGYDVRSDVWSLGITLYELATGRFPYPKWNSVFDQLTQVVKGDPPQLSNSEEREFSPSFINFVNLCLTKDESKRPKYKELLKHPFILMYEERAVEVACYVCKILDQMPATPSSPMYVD

[2] = biological target: T2, Atypical kinase COQ8B, mitochondrial (Homo sapiens) (UniProt Q96D53); assay: Selectivity interaction (KinomeScan (DiscoverX)) EUB0001049a ADCK4; conditions: at 1 µM
T2 sequence (whole entry): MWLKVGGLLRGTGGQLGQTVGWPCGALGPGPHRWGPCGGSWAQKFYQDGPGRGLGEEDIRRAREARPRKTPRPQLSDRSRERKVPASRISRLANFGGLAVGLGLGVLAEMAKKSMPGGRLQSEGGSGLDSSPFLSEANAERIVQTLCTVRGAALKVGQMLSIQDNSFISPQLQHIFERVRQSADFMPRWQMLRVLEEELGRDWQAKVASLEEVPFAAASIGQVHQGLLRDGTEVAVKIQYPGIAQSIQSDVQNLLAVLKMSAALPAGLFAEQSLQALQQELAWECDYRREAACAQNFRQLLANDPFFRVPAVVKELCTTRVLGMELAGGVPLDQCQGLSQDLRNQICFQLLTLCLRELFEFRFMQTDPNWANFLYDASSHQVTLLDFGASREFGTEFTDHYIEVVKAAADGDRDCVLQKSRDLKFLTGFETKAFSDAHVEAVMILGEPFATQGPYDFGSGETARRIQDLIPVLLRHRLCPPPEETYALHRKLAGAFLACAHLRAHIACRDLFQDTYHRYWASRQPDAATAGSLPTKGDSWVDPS

[3] = biological target: 5'-AMP-activated protein kinase catalytic subunit alpha-2 (Homo sapiens) (UniProt P54646); assay: Selectivity interaction (KinomeScan (DiscoverX)) EUB0001049a PRKAA2; conditions: at 1 µM
[4] = biological target: Ribosomal protein S6 kinase alpha-2 (Homo sapiens) (UniProt Q15349); assay: Selectivity interaction (KinomeScan (DiscoverX)) EUB0001079a RPS6KA2; conditions: at 1 µM
[5] = biological target: Non-receptor tyrosine-protein kinase TYK2 (Homo sapiens, UniProt P29597); assay: Selectivity interaction (KinomeScan (DiscoverX)) EUB0000618a TYK2; conditions: at 10 µM
[6] = test system: Tyrosine-protein kinase ABL1 (Homo sapiens), P00519 [F317I]; conditions: at 10 µM
[7] = biological target: Mitogen-activated protein kinase kinase kinase 11 (Homo sapiens) (UniProt Q16584); conditions: at 10 µM
[8] = biological target: Beta-2 adrenergic receptor (Homo sapiens, UniProt P07550); assay: Selectivity interaction (Panel of kinases, GPCRs, ion channels and transporters (enzymatic assay)) EUB0000266bCl ADRB2
[9] = biological target: T3, Casein kinase I isoform alpha-like (Homo sapiens) (UniProt Q8N752); assay: Selectivity interaction (KinomeScan (DiscoverX)) EUB0000607a CSNK1A1L; conditions: at 10 µM
T3 sequence (whole entry): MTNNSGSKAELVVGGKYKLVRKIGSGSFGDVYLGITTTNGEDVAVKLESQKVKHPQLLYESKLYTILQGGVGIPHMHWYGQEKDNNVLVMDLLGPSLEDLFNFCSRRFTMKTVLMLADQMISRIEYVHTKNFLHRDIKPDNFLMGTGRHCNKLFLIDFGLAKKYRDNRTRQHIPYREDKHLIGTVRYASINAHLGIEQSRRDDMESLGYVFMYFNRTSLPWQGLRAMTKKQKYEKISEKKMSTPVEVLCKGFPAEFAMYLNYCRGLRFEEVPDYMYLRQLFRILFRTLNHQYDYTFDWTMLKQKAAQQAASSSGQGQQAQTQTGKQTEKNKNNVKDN

Sequence of Ribosomal protein S6 kinase alpha-2 (Homo sapiens) (Q15349 whole entry): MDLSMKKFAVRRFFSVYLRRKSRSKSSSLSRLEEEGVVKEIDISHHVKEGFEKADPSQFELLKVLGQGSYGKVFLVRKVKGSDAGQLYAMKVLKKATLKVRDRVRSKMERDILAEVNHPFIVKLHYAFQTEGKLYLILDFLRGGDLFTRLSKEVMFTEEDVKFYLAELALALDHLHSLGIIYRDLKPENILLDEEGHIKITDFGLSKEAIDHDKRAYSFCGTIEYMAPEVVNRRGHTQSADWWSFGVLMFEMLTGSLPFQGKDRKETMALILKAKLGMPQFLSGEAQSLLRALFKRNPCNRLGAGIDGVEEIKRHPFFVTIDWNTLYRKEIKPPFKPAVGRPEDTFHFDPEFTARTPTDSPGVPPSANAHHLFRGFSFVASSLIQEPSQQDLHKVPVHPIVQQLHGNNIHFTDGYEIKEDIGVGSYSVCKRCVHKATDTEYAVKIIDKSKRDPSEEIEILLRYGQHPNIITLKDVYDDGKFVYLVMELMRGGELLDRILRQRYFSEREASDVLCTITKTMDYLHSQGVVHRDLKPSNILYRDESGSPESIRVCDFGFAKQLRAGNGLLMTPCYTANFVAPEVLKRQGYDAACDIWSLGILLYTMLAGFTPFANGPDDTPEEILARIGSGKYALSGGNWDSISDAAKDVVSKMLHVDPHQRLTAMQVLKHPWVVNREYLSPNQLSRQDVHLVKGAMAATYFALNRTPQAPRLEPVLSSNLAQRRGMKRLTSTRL
Sequence of 5'-AMP-activated protein kinase catalytic subunit alpha-2 (Homo sapiens) (P54646 whole entry, looked up): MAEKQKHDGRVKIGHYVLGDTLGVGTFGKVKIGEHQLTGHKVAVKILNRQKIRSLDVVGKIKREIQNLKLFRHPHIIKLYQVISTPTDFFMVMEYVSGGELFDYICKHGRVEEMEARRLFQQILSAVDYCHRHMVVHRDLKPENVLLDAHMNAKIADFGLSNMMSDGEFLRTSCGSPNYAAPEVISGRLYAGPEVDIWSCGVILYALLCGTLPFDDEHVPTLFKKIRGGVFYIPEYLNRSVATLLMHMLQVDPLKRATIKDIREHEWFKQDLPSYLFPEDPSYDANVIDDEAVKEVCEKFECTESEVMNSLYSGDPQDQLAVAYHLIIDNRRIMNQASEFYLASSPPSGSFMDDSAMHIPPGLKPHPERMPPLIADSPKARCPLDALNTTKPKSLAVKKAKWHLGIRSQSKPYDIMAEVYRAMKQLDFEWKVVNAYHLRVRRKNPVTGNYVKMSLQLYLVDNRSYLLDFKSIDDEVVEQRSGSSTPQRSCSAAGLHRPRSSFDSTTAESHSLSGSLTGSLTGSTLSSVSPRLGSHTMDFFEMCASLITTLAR
Sequence of Beta-2 adrenergic receptor (P07550 whole entry, looked up, canonical isoform): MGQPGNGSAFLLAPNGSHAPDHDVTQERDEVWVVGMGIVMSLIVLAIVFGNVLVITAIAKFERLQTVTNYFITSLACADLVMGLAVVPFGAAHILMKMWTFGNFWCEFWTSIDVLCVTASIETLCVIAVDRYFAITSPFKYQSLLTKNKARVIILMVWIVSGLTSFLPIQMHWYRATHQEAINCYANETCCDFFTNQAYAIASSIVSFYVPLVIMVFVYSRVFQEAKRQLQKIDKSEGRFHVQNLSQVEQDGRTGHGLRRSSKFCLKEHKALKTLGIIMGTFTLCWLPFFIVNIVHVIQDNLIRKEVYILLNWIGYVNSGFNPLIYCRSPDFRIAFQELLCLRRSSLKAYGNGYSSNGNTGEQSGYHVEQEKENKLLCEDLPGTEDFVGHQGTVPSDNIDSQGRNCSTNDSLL
Sequence of Non-receptor tyrosine-protein kinase TYK2 (P29597 whole entry): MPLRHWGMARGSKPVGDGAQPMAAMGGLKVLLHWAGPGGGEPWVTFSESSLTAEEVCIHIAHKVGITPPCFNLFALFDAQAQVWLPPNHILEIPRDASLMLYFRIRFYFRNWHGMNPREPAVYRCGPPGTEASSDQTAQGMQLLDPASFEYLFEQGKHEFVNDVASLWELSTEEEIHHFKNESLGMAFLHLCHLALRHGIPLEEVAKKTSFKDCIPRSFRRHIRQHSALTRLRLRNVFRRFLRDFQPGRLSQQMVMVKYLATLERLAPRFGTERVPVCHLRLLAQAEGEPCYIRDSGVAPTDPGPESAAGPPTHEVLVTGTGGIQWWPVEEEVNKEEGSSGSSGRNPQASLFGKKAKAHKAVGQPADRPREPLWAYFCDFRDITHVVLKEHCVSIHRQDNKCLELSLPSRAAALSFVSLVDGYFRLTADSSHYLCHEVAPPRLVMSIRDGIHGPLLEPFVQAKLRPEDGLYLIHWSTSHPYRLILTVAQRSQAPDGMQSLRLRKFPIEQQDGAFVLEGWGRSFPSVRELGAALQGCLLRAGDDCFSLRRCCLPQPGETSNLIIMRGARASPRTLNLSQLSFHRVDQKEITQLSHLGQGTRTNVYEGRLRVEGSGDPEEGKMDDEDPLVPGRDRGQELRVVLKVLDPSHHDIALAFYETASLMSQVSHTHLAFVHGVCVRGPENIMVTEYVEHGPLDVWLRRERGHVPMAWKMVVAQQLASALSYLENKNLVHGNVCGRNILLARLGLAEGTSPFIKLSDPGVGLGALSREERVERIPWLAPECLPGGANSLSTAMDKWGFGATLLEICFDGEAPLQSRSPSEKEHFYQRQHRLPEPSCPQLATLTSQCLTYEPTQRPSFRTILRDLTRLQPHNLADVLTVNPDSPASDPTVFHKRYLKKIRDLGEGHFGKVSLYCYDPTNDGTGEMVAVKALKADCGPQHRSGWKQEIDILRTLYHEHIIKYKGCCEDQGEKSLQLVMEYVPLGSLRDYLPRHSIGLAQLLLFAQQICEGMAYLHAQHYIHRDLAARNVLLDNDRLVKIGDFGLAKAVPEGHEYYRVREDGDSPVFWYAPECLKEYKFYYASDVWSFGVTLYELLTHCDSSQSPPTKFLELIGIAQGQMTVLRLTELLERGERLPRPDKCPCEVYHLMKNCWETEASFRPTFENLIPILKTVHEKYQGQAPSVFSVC
Sequence of Mitogen-activated protein kinase kinase kinase 11 (Homo sapiens) (Q16584 whole entry, looked up): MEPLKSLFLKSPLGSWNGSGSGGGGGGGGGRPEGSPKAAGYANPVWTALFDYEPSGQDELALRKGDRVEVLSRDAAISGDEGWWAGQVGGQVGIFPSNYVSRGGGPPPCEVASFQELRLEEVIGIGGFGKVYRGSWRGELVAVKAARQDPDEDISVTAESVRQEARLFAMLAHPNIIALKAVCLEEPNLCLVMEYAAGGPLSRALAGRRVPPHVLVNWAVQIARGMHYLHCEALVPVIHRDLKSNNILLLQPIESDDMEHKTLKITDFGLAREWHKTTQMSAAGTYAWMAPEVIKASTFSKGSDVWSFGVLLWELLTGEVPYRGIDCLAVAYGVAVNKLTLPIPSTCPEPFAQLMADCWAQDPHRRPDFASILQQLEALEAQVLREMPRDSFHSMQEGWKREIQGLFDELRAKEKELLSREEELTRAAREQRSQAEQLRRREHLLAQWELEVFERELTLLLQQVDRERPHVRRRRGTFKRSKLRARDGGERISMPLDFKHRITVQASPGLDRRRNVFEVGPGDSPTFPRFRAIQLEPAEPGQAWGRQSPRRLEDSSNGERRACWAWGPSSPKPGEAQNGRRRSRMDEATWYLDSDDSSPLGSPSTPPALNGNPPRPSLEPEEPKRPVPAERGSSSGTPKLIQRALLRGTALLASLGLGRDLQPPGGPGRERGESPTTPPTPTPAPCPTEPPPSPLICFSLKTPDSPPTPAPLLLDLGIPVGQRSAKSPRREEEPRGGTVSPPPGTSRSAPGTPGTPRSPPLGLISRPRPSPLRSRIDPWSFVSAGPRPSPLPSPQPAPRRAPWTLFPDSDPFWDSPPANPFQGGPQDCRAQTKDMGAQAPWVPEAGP
Sequence of Tyrosine-protein kinase ABL1 (Homo sapiens), P00519 [F317I] (P00519 whole entry F317I): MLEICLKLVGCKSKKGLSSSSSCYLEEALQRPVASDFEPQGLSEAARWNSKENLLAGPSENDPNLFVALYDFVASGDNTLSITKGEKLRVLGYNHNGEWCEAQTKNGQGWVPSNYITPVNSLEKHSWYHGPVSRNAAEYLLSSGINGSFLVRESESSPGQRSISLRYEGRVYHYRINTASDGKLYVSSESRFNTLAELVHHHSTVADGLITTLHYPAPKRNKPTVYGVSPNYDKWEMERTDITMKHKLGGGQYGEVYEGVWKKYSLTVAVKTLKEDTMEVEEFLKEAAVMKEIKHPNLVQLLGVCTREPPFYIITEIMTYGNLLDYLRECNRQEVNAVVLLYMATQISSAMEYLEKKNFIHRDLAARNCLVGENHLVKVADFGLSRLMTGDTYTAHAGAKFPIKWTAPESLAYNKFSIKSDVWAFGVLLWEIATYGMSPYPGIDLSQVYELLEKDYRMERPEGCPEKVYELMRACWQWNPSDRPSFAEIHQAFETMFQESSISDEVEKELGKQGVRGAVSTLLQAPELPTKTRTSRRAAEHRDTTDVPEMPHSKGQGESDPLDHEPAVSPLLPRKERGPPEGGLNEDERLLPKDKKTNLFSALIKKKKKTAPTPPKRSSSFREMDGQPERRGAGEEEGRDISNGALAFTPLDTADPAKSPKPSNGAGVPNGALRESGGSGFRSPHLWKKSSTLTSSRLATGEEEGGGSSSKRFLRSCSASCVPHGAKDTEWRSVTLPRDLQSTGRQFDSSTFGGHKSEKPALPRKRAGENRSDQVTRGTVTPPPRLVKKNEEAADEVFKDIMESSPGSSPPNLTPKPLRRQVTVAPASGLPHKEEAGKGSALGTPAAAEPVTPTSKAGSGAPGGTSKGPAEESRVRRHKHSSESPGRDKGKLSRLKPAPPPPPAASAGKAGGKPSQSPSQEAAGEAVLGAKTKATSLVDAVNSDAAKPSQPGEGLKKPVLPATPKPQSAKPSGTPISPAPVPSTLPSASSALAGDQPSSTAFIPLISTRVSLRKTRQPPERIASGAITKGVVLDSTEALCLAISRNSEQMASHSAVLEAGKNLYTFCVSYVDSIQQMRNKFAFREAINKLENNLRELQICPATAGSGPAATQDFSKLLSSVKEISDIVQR

COc1cc(Nc2nc(C)cc(-c3cnn4nc(OC)ccc34)n2)cc(C(F)(F)F)c1
% of control [1]: 74% | % of control [2]: 79% | % of control [3]: 100%

Nc1cnc(N2CCc3cc(S(=O)(=O)Nc4c(F)cc(Cl)cc4F)cc(N4CCCC4=O)c32)nc1 [TP-020n]
% of control [4]: 100%

O[C@H]1CC[C@H](Nc2ncc3nc(Nc4c(F)cc(F)cc4F)n([C@H]4CCOC4)c3n2)CC1
% of control [5]: 81%

Cc1cc([C@@H](C)Nc2ccccc2C(=O)O)c2nc(N3CCOCC3)cc(=O)n2c1 [AZD-6482]
% of control [6]: 94% | % of control [7]: 100%

CCn1c(-c2nc3cc(C(=O)N4CCCC(N)C4)ccc3n2C)cc2ccccc21 (centres undefined)
pXC50 [8]: < 4.5 M

CNC(=O)Nc1ccc(-c2nc(N3CC4CCC(C3)O4)c3cnn(C4CCC5(CC4)OCCO5)c3n2)cc1
% of control [9]: 100%
